Columns and labels:
human CB1 receptor [1] = molecular target: T1, human CB1 receptor (Homo sapiens, UniProt P21554); test: aequorin luminescence agonist assay, CHO-K1 cells; format: cell-based; conditions: read-out: EC50 (95% CI)
T1 construct: gene CNR1; recombinant receptor in CHO-K1 AequoScreen cells (aequorin luminescence line, Revvity ES-110-AF)
Excerpt: aequorin luminescence agonist assay, CHO-K1 cells on human CB1 receptor

human CB1 receptor [2] = molecular target: T1, human CB1 receptor; test: aequorin luminescence agonist assay, CHO-K1 cells; format: cell-based; conditions: agonist mode, tested up to 60 uM; silanized plastic, glass vials; 0.05% BSA assay medium

T1 sequence (P21554 whole entry): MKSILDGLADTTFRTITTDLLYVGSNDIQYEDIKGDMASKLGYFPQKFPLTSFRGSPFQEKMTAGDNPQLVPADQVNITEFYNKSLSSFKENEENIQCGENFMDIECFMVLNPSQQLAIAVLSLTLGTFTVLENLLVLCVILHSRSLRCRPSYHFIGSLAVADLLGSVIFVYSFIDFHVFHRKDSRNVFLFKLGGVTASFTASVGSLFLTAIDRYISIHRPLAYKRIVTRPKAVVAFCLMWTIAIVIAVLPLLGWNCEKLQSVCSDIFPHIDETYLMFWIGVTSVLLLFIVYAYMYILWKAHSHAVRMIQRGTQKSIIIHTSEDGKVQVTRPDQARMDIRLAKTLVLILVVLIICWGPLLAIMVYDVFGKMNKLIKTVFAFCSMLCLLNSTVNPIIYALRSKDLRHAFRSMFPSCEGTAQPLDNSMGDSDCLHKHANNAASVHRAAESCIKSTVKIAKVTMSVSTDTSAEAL

Structure (SMILES) | EC50 (human CB1 receptor [1]) [µM] | EC50 n.d. (human CB1 receptor [2])
CCCCCc1cc(O)c2c(c1)OC(C)(C)[C@@H]1CC[C@@H](C)C[C@@H]21 [(9R)-HHC] | 0.101 | 
CCCCCc1cc(OC(C)=O)c2c(c1)OC(C)(C)[C@@H]1CC[C@H](C)C[C@@H]21 [(9S)-HHC-O] |  | (9S)‐HHC‐O did not activate the CB1 receptor
CCCCCCCc1cc(O)c2c(c1)OC(C)(C)[C@@H]1CC[C@@H](C)C[C@@H]21 [(9R)-HHC-P] | 0.0444 | 
CCCCCc1cc(O)c2c(c1)OC(C)(C)[C@@H]1CC[C@H](C)C[C@@H]21 [(9S)-HHC] | 1.19 | 
CCCCCCCc1cc(O)c2c(c1)OC(C)(C)[C@@H]1CC[C@H](C)C[C@@H]21 [(9S)-HHC-P] | 0.134 | 
CCCCCn1cc(C(=O)c2cccc3ccccc23)c2ccccc21 [JWH-018, reference compound] | 0.0225 | 
CCCCCc1cc(OC(C)=O)c2c(c1)OC(C)(C)[C@@H]1CC[C@@H](C)C[C@@H]21 [(9R)-HHC-O] | > 33 | 
